Paper PMC8280143, “A novel dephosphorylation targeting chimera selectively promoting tau removal in tauopathies” (Signal Transduction and Targeted Therapy, 2021)
Entries after “also recorded” stand apart in the source; their conditions may differ.

How the values were obtained:
tau = assay: Tau Ser/Thr phosphorylation and ubiquitination in the presence of MG132; type: cell-based, rat
Method: Primary hippocampal neurons were prepared from E12–E15 days SD rat embryos. Briefly, pregnant rats were acutely executed, hippocampus was dissected on ice and gently minced in DME/F12 (Hyclone) then suspended in 0.125% (vol/vol) trypsin solution at 37 °C for 20 min. Enzymatic activity was stopped by fetal bovine serum. Neurons were initially kept in 10% FBS-containing DME/F12 for 4–6 h, and subsequently cultured in Neurobasal (Hyclone) with 2% B27, 1% glutamax and 1% penicillin–streptomycin (Thermo Fisher Scientific) in dishes pre-coated with 100 μg/mL poly-D-lysine. Serum was gradually removed by replacing half of the medium for each time within the following 2 days. […]
Cultured cells or hippocampus tissues were collected on ice, and homogenized with RIPA lysis buffer containing 50 mM Tris-HCl, 100 mM NaCl, 1% Triton X-100, 5 mM EDTA, and 1:100 PMSF, and then centrifuged at 12,000 × g for 20 min. […] Protein concentration was measured through BCA assays (Thermo Fisher). […] Blots were visualized using ECL luminol reagent (P0018FS, Beyotime), and quantified using ImageJ software.
For co-immunoprecipitation, cultured cells were lysed on ice with RIPA buffer for 10 min containing 1:100 PMSF. […] Immunoprecipitants were subsequently analyzed through Western blotting.

Tau368 mice = assay: Object-place recognition test; type: in vivo, mouse
Method: Mice were repeatedly handled during DEPTAC administration before behavioral tests. For object-place recognition in the […], mice were placed in a box (50 × 50 × 50 cm) marked with a visual cue on the wall, and two identical objects (plastic toys) were placed at the two different corners. Each mouse was allowed to freely explore for 5 min, and then removed from the box for 2 min, during which the box and the objects were cleaned with 75% ethanol. Pseudorandomly, one of the two objects (object B) was moved to a new corner while the other object (object A) remained unmoved. In the test phase, mice were allowed to freely explore in the box for another 5 min. Videos were recorded and analyzed online using an ANY-maze video tracking system (Stoelting). The time mice stayed around each object was counted as exploring; and the preference ratio was calculated as the exploring time (B − A) / (B + A).

human tau (hTau) = assay: Western blotting of tau in primary neurons with hTau overexpression in the presence of MG132; type: cell-based
Method: Primary hippocampal neurons were prepared from E12–E15 days SD rat embryos. Briefly, pregnant rats were acutely executed, hippocampus was dissected on ice and gently minced in DME/F12 (Hyclone) then suspended in 0.125% (vol/vol) trypsin solution at 37 °C for 20 min. Enzymatic activity was stopped by fetal bovine serum. Neurons were initially kept in 10% FBS-containing DME/F12 for 4–6 h, and subsequently cultured in Neurobasal (Hyclone) with 2% B27, 1% glutamax and 1% penicillin–streptomycin (Thermo Fisher Scientific) in dishes pre-coated with 100 μg/mL poly-D-lysine. Serum was gradually removed by replacing half of the medium for each time within the following 2 days. Especially, to inhibit the proteasome-dependent proteolysis, the cultured hippocampal neurons were treated with 5 μM MG132 for 5 h before harvest.
Cultured cells or hippocampus tissues were collected on ice, and homogenized with RIPA lysis buffer containing 50 mM Tris-HCl, 100 mM NaCl, 1% Triton X-100, 5 mM EDTA, and 1:100 PMSF, and then centrifuged at 12,000 × g for 20 min. The supernatant was collected for the analysis of soluble proteins. In some experiments, the pellets were further incubated with 8% SDS buffer at 37 °C and then ultrasound for 60 times to reach a complete resuspension for the analysis of insoluble tau. Protein concentration was measured through BCA assays (Thermo Fisher). Equal amount of protein from each sample were separated in SDS-PAGE gels, and then transferred onto nitrocellulose or 0.22 μm polyvinylidene fluoride membranes (Merck Millipore). The membranes were blocked with 5% BSA, and incubated in turn with primary and horseradish peroxidase-conjugated secondary antibodies: pS199-Tau (44734G, Invitrogen, 1:2000), pT205-Tau (11108-1, Signalway, 1:2000), pS396-Tau (11102, Signalway, 1:2000), pS404-Tau (11112, Signalway, 1:2000), AT8 (MN1020, Thermo Fisher, 1:1000), Tau5 (ab80579, Abcam, 1:1000), Tau46 (T9450, Sigma, 1:1000), PP2A-Bα (4953, Cell signaling, 1:1000), Phospho-Ser/Thr (ab17464, Abcam1:1000), Ubiquitin (ab7254, Abcam, 1:1000), MAP2 (AB5622, Millipore, 1:2000), hTau-N368 (a generous gift from Prof. Keqiang Ye, Emory University School of Medicine, 1:1000), DEPTAC (developed by Daian Biotechnology, Wuhan, China, 1:500), β-actin (ab6276, Abcam, 1:2000). HRP-conjugated goat anti-rabbit IgG (A0208, Beyotime, 1:3000), HRP-conjugated goat anti-mouse IgG (A0216, Beyotime, 1:3000). Blots were visualized using ECL luminol reagent (P0018FS, Beyotime), and quantified using ImageJ software.

[1] = system: human tau in HEK293(hTau) cells; assay: Tau dephosphorylation and reduction in hTau-expressed HEK293 cells; type: cell-based; conditions: Supplementary Fig. S4; by contrast to neurons
Method: HEK293 cells with stable expression of wild-type full-length human tau (term as HEK293(hTau) cells), were cultured in DMEM (Hyclone, SH30022.01) containing 10% fetal bovine serum (Biological Industries, 04–001-1ACS) and […] G418 (Thermo Fisher Scientific, 10,131,027) under 5% CO2, 37 °C.
Cultured cells or hippocampus tissues were collected on ice, and homogenized with RIPA lysis buffer containing 50 mM Tris-HCl, 100 mM NaCl, 1% Triton X-100, 5 mM EDTA, and 1:100 PMSF, and then centrifuged at 12,000 × g for 20 min. The supernatant was collected for the analysis of soluble proteins. In some experiments, the pellets were further incubated with 8% SDS buffer at 37 °C and then ultrasound for 60 times to reach a complete resuspension for the analysis of insoluble tau. Protein concentration was measured through BCA assays (Thermo Fisher). Equal amount of protein from each sample were separated in SDS-PAGE gels, and then transferred onto nitrocellulose or 0.22 μm polyvinylidene fluoride membranes (Merck Millipore). […] Blots were visualized using ECL luminol reagent (P0018FS, Beyotime), and quantified using ImageJ software.

tau aggregation = assay: Thioflavin T staining of tau aggregation in the DG of Tau368 mice; type: in vivo, mouse; conditions: DEPTAC for a consecutive month after stopping dox; **p < 0.01, n = 4–5 mice
Method: For 2-month male C57BL/6 mice, 10 mM FITC-labeled or unlabeled-DEPTAC were directly injected through the tail vein or lateral ventricle for the evaluation of BBB-penetrability. For 9-month 3×Tg AD mice or Tau368 (20–30 g body weight), unlabeled-DEPTAC (5 mM, 1 μL for each time) was delivered for once into the lateral ventricle through direct stereotaxic injection, or repeatedly administrated through guiding cannulas (RWD, Shenzhen, China) implanted into the lateral ventricle once every 3 days for a consecutive month to test its dephosphorylation efficiency. Mice were restricted in a custom designed device and stayed awake during drug administration, and sacrificed at 24 h post the single or last DEPTAC administration.
Free-floating brain sections were washed with Tris-buffered saline (TBS) for 3 × 5 min, and then incubated with 0.3% Thioflavin T (Sigma) dissolved in 50% ethanol at room temperature for 10 min. The sections were then decolorized in 50% ethanol for 3 × 5 min, washed in TBS, and subsequently co-stained with DAPI for 10 min.

[2] = 5 μM MG132 for 5 h before harvest, *p < 0.05, n = 3 cell wells

Substance: (1) YQQYQDATADEQG, originates from the porcine β-tubulin 422–434 for recognizing and binding tau proteins.[5],[6] (2) GSGS, a linker for increasing the flexibility of the peptide.[15] (3) KKVAVVRTPPKSP, for recruiting PP2A-Bα,[16] and (4) RRRRRRRR [DEPTAC, DEPhosphorylation TArgeting Chimera; 38 amino acid residues, C185H314N72O56]
- tau phosphorylation at Ser/Thr residues (tau): downregulation; also recorded: decreased
- tau ubiquitination (tau): upregulation; also recorded: upregulated
- object-place recognition in control mice (Tau368 mice; Tau368 mice treated with NW): only limitedly affected
- object-place recognition impairment (Tau368 mice; dox-treated Tau368 mice, 1-month DEPTAC after stopping dox, *p < 0.05, n = 10–15 mice): remarkably ameliorated; also recorded: rescued
- efficiency of tau dephosphorylation in the presence of MG132 (human tau (hTau); 5 μM MG132, compared with absence of MG132, n = 3 cell wells): reduced efficiency; also recorded: less efficiency
- reduction of total tau (Tau5 and Tau46) in the presence of MG132 (human tau (hTau); 5 μM MG132 for 5 h before harvest): abolished
- tau dephosphorylation at AT8 epitope in the presence of MG132 (human tau (hTau); [2]): still significant
- tau dephosphorylation at pT205 in the presence of MG132 (human tau (hTau); [2]): still significant
- effectiveness in dephosphorylating and reducing tau in hTau-expressed HEK293 cells [1]: relatively limited effectiveness
- thioflavin T (ThT)-stained tau aggregation in the DG (tau aggregation): ameliorated
